One test deals with PAR4 (Homo sapiens (Human), UniProt Q96RI0). Put plainly: FLIPR assay in PAR4-expressing HEK293 cells (PAR4 antagonist activity, calcium mobilization). Format: cell-based. The settings on record: H-Ala-Phe(4-F)-Pro-Gly-Trp-Leu-Val-Lys-Asn-Gly-NH2-induced calcium mobilization. The source says:
The FLIPR assay is an exemplary in vitro assay for measuring the activity of the PAR4 antagonists of the present invention. In this assay, intracellular calcium mobilization is induced in PAR4 expressing cells by a PAR4 agonist and calcium mobilization is monitored. See, e.g., Example A.
HEK293 cells stably expressing PAR4 were generated by a standard method of transfection of human […] cDNA expression vector or by RAGE technology from Athersys Inc. (Cleveland, Ohio) and selected based on PAR4 protein expression of mRNA expression. […] These cells express endogenous PAR1 and can elicit calcium signal upon stimulation with PAR1 agonist peptide.
Counter screens for agonist activity and PAR1 antagonist activity were also performed. Briefly, HEK293 EBNA PAR4 clone 20664.1J cells were plated 24 hrs. prior to experiment in 384 well, Poly-D-Lysine coated, black, clear bottom plates (Greiner Bio-One, Monroe, N.C.). Cells were plated at 20,000 cells/well in […] growth medium and incubated at 37° C. with 5% CO2 overnight. At time of assay, media was replaced with 40 μl 1× Hank's Buffered Saline Solution (HBSS) (with 10 mM HEPES) and 20 μl test compound also diluted in 1×HBSS buffer was added at various concentrations and 0.67% DMSO final concentration on the FDSS for agonist measurement. The cells were then incubated for 30 minutes at room temperature followed by addition of 20 μl of agonist peptide for antagonist measurement on the FDSS.
As indicated above, the FLIPR assay, an in vitro assay, measures the PAR4 antagonist activity of compounds tested as described in Example A. The PRP assay, an in vitro assay, measures the PAR4 antagonist assay of the compounds tested in the presence of plasma proteins and thrombin agonist as described in Example C.
Chain of PAR4 (Q96RI0 18-385): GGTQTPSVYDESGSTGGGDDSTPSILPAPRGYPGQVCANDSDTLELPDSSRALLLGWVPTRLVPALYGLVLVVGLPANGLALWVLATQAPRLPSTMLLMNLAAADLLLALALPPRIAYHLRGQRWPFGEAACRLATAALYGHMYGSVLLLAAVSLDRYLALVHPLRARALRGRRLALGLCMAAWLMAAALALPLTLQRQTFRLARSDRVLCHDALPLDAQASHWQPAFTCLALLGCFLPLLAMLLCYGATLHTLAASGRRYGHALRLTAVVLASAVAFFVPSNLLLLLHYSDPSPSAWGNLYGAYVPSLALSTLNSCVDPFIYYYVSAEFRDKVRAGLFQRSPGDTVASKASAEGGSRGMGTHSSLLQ
`COc1cc(OCc2csc(C3(F)CCOCC3)n2)c2cc(-c3cn4nc(OC)sc4n3)oc2c1` [Example 119, 6-(4-((2-(4-Fluorotetrahydro-2H-pyran-4-yl)thiazol-4-yl)methoxy)-6-methoxybenzofuran-2-yl)-2-methoxyimidazo[2,1-b][1,3,4]thiadiazole]: the EC50 came out at 0.72 nM.
On the same count and under the same terms, with `COc1cc(OCc2csc(C3(OC)CCOCC3)n2)c2cc(-c3cn4nc(OC)sc4n3)oc2c1` [Example 120, 2-Methoxy-6-(6-methoxy-4-((2-(4-methoxytetrahydro-2H-pyran-4-yl)thiazol-4-yl)methoxy)benzofuran-2-yl)imidazo[2,1-b][1,3,4]thiadiazole] the figure was 0.45 nM; with `COc1cc(OCc2csc(C3(F)CC(C)OC(C)C3)n2)c2cc(-c3cn4nc(OC)sc4n3)oc2c1` (stereo not shown) [Example 122, 6-(4-((2-(4-Fluoro-2,6-dimethyltetrahydro-2H-pyran-4-yl)thiazol-4-yl)methoxy)-6-methoxybenzofuran-2-yl)-2-methoxy-imidazo[2,1-b][1,3,4]thiadiazole], 0.72 nM; with `COc1cc(OCc2csc(C3(O)CCOC3)n2)c2cc(-c3cn4nc(OC)sc4n3)oc2c1` (stereo not shown) [Example 123, 3-(4-(((6-Methoxy-2-(2-methoxyimidazo[2,1-b][1,3,4]thiadiazol-6-yl)benzofuran-4-yl)oxy)methyl)thiazol-2-yl)tetrahydrofuran-3-ol], 0.5 nM.
On the same count and under the same terms, with `COc1cc(OCc2nc(C3(O)CCOCC3)sc2C)c2cc(-c3cn4nc(OC)sc4n3)oc2c1` [Example 124, 4-(4-(((6-Methoxy-2-(2-methoxyimidazo[2,1-b][1,3,4]thiadiazol-6-yl)benzofuran-4-yl)oxy)methyl)-5-methylthiazol-2-yl)tetrahydro-2H-pyran-4-ol] the figure was 0.29 nM.
Same read-out and setting: with `COc1cc(OCc2csc(C3(O)CCC(=O)CC3)n2)c2cc(-c3cn4nc(OC)sc4n3)oc2c1` [Example 128, 4-Hydroxy-4-(4-(((6-methoxy-2-(2-methoxyimidazo[2,1-b][1,3,4]thiadiazol-6-yl)benzofuran-4-yl)oxy)methyl)thiazol-2-yl)cyclohexan-one] the figure was 0.35 nM; with `COc1cc(OCc2csc(C3(O)CCN(C(=O)OC(C)(C)C)CC3)n2)c2cc(-c3cn4nc(OC)sc4n3)oc2c1` [Example 129, tert-Butyl 4-hydroxy-4-(4-(((6-methoxy-2-(2-methoxyimidazo[2,1-b][1,3,4]thiadiazol-6-yl)benzofuran-4-yl)oxy)methyl)thiazol-2-yl)piperidine-1-carboxylate], 0.96 nM; with `COc1cc(OCc2csc(C3(O)CCN(C(=O)c4ccccc4)CC3)n2)c2cc(-c3cn4nc(OC)sc4n3)oc2c1` [Example 130, (4-Hydroxy-4-(4-(((6-methoxy-2-(2-methoxyimidazo[2,1-b][1,3,4]thiadiazol-6-yl)benzofuran-4-yl)oxy)methyl)thiazol-2-yl)piperidin-1-yl)(phenyl)methanone], 0.4 nM.
In the case of `COc1cc(OCc2nc(C3(F)CCOCC3)sc2C(F)(F)F)c2cc(-c3cn4nc(OC)sc4n3)oc2c1` [Example 132, 6-(4-((2-(4-Fluorotetrahydro-2H-pyran-4-yl)-5-(trifluoromethyl)thiazol-4-yl)methoxy)-6-methoxybenzofuran-2-yl)-2-methoxyimidazo[2,1-b][1,3,4]thiadiazole], the EC50 came out at 1.9 nM.
As for `COc1cc(OCc2csc(C3(O)CCCCC3)n2)c2cc(-c3cn4nc(OC)sc4n3)oc2c1` [Example 133, 1-(4-(((6-Methoxy-2-(2-methoxyimidazo[2,1-b][1,3,4]thiadiazol-6-yl)benzofuran-4-yl)oxy)methyl)thiazol-2-yl)cyclohexanol], the concentration giving a half-maximal response (EC50) worked out at 0.37 nM.
Turning to `COc1cc(OCc2csc(C3(F)CCCCC3)n2)c2cc(-c3cn4nc(OC)sc4n3)oc2c1` [Example 134, 6-(4-((2-(1-Fluorocyclohexyl)thiazol-4-yl)methoxy)-6-methoxybenzofuran-2-yl)-2-methoxyimidazo[2,1-b][1,3,4]thiadiazole], the concentration giving a half-maximal response (EC50) stood at 1.2 nM.
The same measure, in the same setting: next, `COc1cc(OCc2csc(C3(O)CCC(F)(F)CC3)n2)c2cc(-c3cn4nc(OC)sc4n3)oc2c1` [Example 135, 4,4-Difluoro-1-(4-(((6-methoxy-2-(2-methoxyimidazo[2,1-b][1,3,4]thiadiazol-6-yl)benzofuran-4-yl)oxy)methyl)thiazol-2-yl)cyclohexanol]: 0.79 nM; `COc1cc(OCc2csc(C3(F)CCC(F)(F)CC3)n2)c2cc(-c3cn4nc(OC)sc4n3)oc2c1` [Example 136, 2-Methoxy-6-(6-methoxy-4-((2-(1,4,4-trifluorocyclohexyl)thiazol-4-yl)methoxy)benzofuran-2-yl)imidazo[2,1-b][1,3,4]thiadiazole]: 1.2 nM.
Same read-out and setting: next, `CCC(O)(c1nc(COc2cc(OC)cc3oc(-c4cn5nc(OC)sc5n4)cc23)cs1)C(F)(F)F` (stereo not shown) [Example 138]: 0.82 nM; `CCC(O)(CC)c1nc(COc2cc(OC)cc3oc(-c4cn5nc(OC)sc5n4)cc23)cs1` [Example 140]: 0.67 nM.
With `COc1cc(OCc2csc(C(C)(O)C3CCCCC3)n2)c2cc(-c3cn4nc(OC)sc4n3)oc2c1` (stereo not shown) [Example 142], the concentration giving a half-maximal response (EC50) turned out to be 0.31 nM.
Still for that read-out and setting: with `COc1cc(OCc2csc(C(C)(O)C(F)(F)F)n2)c2cc(-c3cn4nc(OC)sc4n3)oc2c1` (stereo not shown) [Example 143] the figure was 0.39 nM.
On the same count and under the same terms, next, `COc1cc(OCc2csc(C(O)(C3CC3)C3CC3)n2)c2cc(-c3cn4nc(OC)sc4n3)oc2c1` [Example 144]: 0.26 nM; `COc1cc(OCc2csc(C(O)(C3CCCCC3)C(F)(F)F)n2)c2cc(-c3cn4nc(OC)sc4n3)oc2c1` (stereo not shown) [Example 146]: 0.73 nM.
For the compound `COCCC(C)(F)c1nc(COc2cc(OC)cc3oc(-c4cn5nc(OC)sc5n4)cc23)cs1` (stereo not shown) [Example 147], the EC50 was 0.96 nM.
Take `COc1cc(OCc2csc(C3=CCC(C(=O)OC(C)(C)C)CC3)n2)c2cc(-c3cn4nc(OC)sc4n3)oc2c1` (stereo not shown) [Example 148, tert-Butyl 4-(4-(((6-methoxy-2-(2-methoxyimidazo[2,1-b][1,3,4]thiadiazol-6-yl)benzofuran-4-yl)oxy)methyl)thiazol-2-yl)cyclohex-3-enecarboxylate]: the half-maximal effective concentration (EC50) turned out to be 0.37 nM.
Still for that read-out and setting: with `COc1cc(OCc2csc(C3(O)CCC(C(=O)OC(C)(C)C)CC3)n2)c2cc(-c3cn4nc(OC)sc4n3)oc2c1` (stereo not shown) [Example 149, tert-Butyl 4-hydroxy-4-(4-(((6-methoxy-2-(2-methoxyimidazo[2,1-b][1,3,4]thiadiazol-6-yl)benzofuran-4-yl)oxy)methyl)thiazol-2-yl)cyclohexanecarboxylate] the figure was 4.1 nM; with `COc1cc(OCc2csc(C3(O)CCC(C(=O)O)CC3)n2)c2cc(-c3cn4nc(OC)sc4n3)oc2c1` (stereo not shown) [Example 150, 4-Hydroxy-4-(4-(((6-methoxy-2-(2-methoxyimidazo[2,1-b][1,3,4]thiadiazol-6-yl)benzofuran-4-yl)oxy)methyl)thiazol-2-yl)cyclohexanecarboxylic acid], 0.92 nM.
As to `COc1cc(OCc2csc(C3(c4ccc(Br)cc4)CCOCC3)n2)c2cc(-c3cn4nc(OC)sc4n3)oc2c1` [Example 153, 6-(4-((2-(4-(4-Bromophenyl)tetrahydro-2H-pyran-4-yl)thiazol-4-yl)methoxy)-6-methoxybenzofuran-2-yl)-2-methoxyimidazo[2,1-b][1,3,4]thiadiazole], the concentration giving a half-maximal response (EC50) amounted to 1.7 nM.
The same measure, in the same setting: with `COc1cc(OCc2csc(C3(c4ccc(Cl)cc4)CCOCC3)n2)c2cc(-c3cn4nc(OC)sc4n3)oc2c1` [Example 154, 6-(4-((2-(4-(4-Chlorophenyl)tetrahydro-2H-pyran-4-yl)thiazol-4-yl)methoxy)-6-methoxybenzofuran-2-yl)-2-methoxyimidazo[2,1-b][1,3,4]thiadiazole] the figure was 1.1 nM; with `COc1cc(OCc2csc(C3(c4cccc(Cl)c4)CCOCC3)n2)c2cc(-c3cn4nc(OC)sc4n3)oc2c1` [Example 155, 6-(4-((2-(4-(3-Chlorophenyl)tetrahydro-2H-pyran-4-yl)thiazol-4-yl)methoxy)-6-methoxybenzofuran-2-yl)-2-methoxyimidazo[2,1-b][1,3,4]thiadiazole], 0.62 nM.
Still for that read-out and setting: with `COc1cc(OCc2csc(C3(c4ccccc4F)CCOCC3)n2)c2cc(-c3cn4nc(OC)sc4n3)oc2c1` [Example 156, 6-(4-((2-(4-(2-Fluorophenyl)tetrahydro-2H-pyran-4-yl)thiazol-4-yl)methoxy)-6-methoxybenzofuran-2-yl)-2-methoxyimidazo[2,1-b][1,3,4]thiadiazole] the figure was 0.52 nM.

Staying with this test, now noted: H-Ala-Phe(4-F)-[…]NH2-induced calcium mobilization.
Regarding `COc1cc(OCc2csc(C3=CCC4(CC3)OCCO4)n2)c2cc(-c3cn4nc(OC)sc4n3)oc2c1` [Example 127, 6-(4-((2-(1,4-Dioxaspiro-[4.5]dec-7-en-8-yl)thiazol-4-yl)methoxy)-6-methoxybenzofuran-2-yl)-2-methoxyimidazo[2,1-b][1,3,4]thiadiazole], the EC50 was 1.6 nM.

For the origin of these results see patent US9688695B2, “Imidazothiadiazole and imidazopyrazine derivatives as protease activated receptor 4 (PAR4) inhibitors for treating platelet aggregation” (BRISTOL-MYERS SQUIBB COMPANY, priority 2012, dated 2017).
